Laboratory results reported in ChEMBL document CHEMBL4622868, “Design and synthesis of amphiphilic 2-hydroxybenzylphosphonium salts with antimicrobial and antitumor dual action” (Bioorg Med Chem Lett, 2020).

How the values were obtained:
Staphylococcus aureus [1] = assay: Antibacterial activity against Staphylococcus aureus ATCC 209p; type: functional
Staphylococcus aureus [2] = assay: Bactericidal activity against Staphylococcus aureus ATCC 209p; type: functional
Bacillus cereus [3] = assay: Antibacterial activity against Bacillus cereus; type: functional
Bacillus cereus [4] = assay: Bactericidal activity against Bacillus cereus; type: functional
[5] = tested on: Trichophyton mentagrophytes; assay: Antifungal activity against Trichophyton mentagrophytes; type: functional
[6] = tested on: Trichophyton mentagrophytes; assay: Fungicidal activity against Trichophyton mentagrophytes; type: functional
Candida albicans [7] = assay: Antifungal activity against Candida albicans; type: functional
Candida albicans [8] = assay: Fungicidal activity against Candida albicans; type: functional
Staphylococcus aureus [9] = assay: Antibacterial activity against clinical isolate amoxicillin and ciprofloxacin resistance Staphylococcus aureus; type: functional
Staphylococcus aureus [10] = assay: Bactericidal activity against clinical isolate amoxicillin and ciprofloxacin resistance Staphylococcus aureus; type: functional
Staphylococcus aureus [11] = assay: Antibacterial activity against clinical isolate amoxicillin resistance Staphylococcus aureus; type: functional
Staphylococcus aureus [12] = assay: Bactericidal activity against clinical isolate amoxicillin resistance Staphylococcus aureus; type: functional
Staphylococcus aureus [13] = assay: Antibacterial activity against Staphylococcus aureus ATCC 209p assessed as increase in crystal violet uptake at 2 uM incubated for 30 mins (reference value: 1.8 %); type: functional
[14] = Hemolytic activity against RBC (unknown origin) at 480 uM; type: ADME, cell-based, Erythrocyte; conditions: red blood cells (erythrocytes); read-out: Activity
[15] = Hemolytic activity against RBC (unknown origin) at 240 uM; type: ADME, cell-based, Erythrocyte; conditions: red blood cells (erythrocytes); read-out: Activity
[16] = Hemolytic activity against RBC (unknown origin) at 120 uM; type: ADME, cell-based, Erythrocyte; conditions: red blood cells (erythrocytes); read-out: Activity
[17] = Hemolytic activity against RBC (unknown origin) at 60 uM; type: ADME, cell-based, Erythrocyte; conditions: red blood cells (erythrocytes); read-out: Activity
[18] = Hemolytic activity against RBC (unknown origin) at 40 uM; type: ADME, cell-based, Erythrocyte; conditions: red blood cells (erythrocytes); read-out: Activity
[19] = Hemolytic activity against RBC (unknown origin) at 20 uM; type: ADME, cell-based, Erythrocyte; conditions: red blood cells (erythrocytes); read-out: Activity
[20] = Hemolytic activity against RBC (unknown origin) at 10 uM; type: ADME, cell-based, Erythrocyte; conditions: red blood cells (erythrocytes); read-out: Activity
[21] = Hemolytic activity against RBC (unknown origin) at 5 uM; type: ADME, cell-based, Erythrocyte; conditions: red blood cells (erythrocytes); read-out: Activity
[22] = Hemolytic activity against RBC (unknown origin) at 1 uM; type: ADME, cell-based, Erythrocyte; conditions: red blood cells (erythrocytes); read-out: Activity
M-HeLa [23] = assay: Cytotoxicity against human M-HeLa cells; type: functional, cell-based
MCF7 = assay: Cytotoxicity against human MCF7 cells; type: functional, cell-based
HepG2 = assay: Cytotoxicity against human HepG2 cells; type: functional, cell-based; conditions: read-out: IC50
PANC-1 = assay: Cytotoxicity against human PANC1 cells; type: functional, cell-based
[24] = Cytotoxicity against human Chang cells; type: cell-based
[25] = Selectivity index, ratio of IC50 for human Chang cells to IC50 for human M-HeLa cells
[26] = Selectivity index, ratio of IC50 for human Chang cells to IC50 for human MCF7 cells
[27] = Selectivity index, ratio of IC50 for human Chang cells to IC50 for human HepG2 cells
[28] = Selectivity index, ratio of IC50 for human Chang cells to IC50 for human PANC1 cells
M-HeLa [29] = assay: Induction of apoptosis in human M-HeLa cells assessed as viable cells at 3 uM incubated for 24 hrs by Annexin-V FITC and propidium iodide staining based flow cytometry analysis (reference value: 90.48 %); type: functional; conditions: read-out: Activity
M-HeLa [30] = assay: Induction of apoptosis in human M-HeLa cells assessed as early apoptotic cells at 3 uM incubated for 24 hrs by Annexin-V FITC and propidium iodide staining based flow cytometry analysis (reference value: 7.85 %); type: functional
M-HeLa [31] = assay: Induction of apoptosis in human M-HeLa cells assessed as late apoptotic cells at 3 uM incubated for 24 hrs by Annexin-V FITC and propidium iodide staining based flow cytometry analysis (reference value: 0.36 %); type: functional
M-HeLa [32] = assay: Induction of apoptosis in human M-HeLa cells assessed as necrotic cells at 3 uM incubated for 24 hrs by Annexin-V FITC and propidium iodide staining based flow cytometry analysis (reference value: 1.32 %); type: functional
M-HeLa [33] = assay: Induction of apoptosis in human M-HeLa cells assessed as viable cells at 6 uM incubated for 24 hrs by Annexin-V FITC and propidium iodide staining based flow cytometry analysis (reference value: 90.48 %); type: functional; conditions: read-out: Activity
M-HeLa [34] = assay: Induction of apoptosis in human M-HeLa cells assessed as early apoptotic cells at 6 uM incubated for 24 hrs by Annexin-V FITC and propidium iodide staining based flow cytometry analysis (reference value: 7.85 %); type: functional
M-HeLa [35] = assay: Induction of apoptosis in human M-HeLa cells assessed as late apoptotic cells at 6 uM incubated for 24 hrs by Annexin-V FITC and propidium iodide staining based flow cytometry analysis (reference value: 0.36 %); type: functional
M-HeLa [36] = assay: Induction of apoptosis in human M-HeLa cells assessed as necrotic cells at 6 uM incubated for 24 hrs by Annexin-V FITC and propidium iodide staining based flow cytometry analysis (reference value: 1.32 %); type: functional
M-HeLa [37] = assay: Induction of apoptosis in human M-HeLa cells assessed as early apoptotic cells incubated for 24 hrs by Annexin-V FITC and propidium iodide staining based flow cytometry analysis; type: functional, cell-based
M-HeLa [38] = assay: Induction of mitochondrial membrane potential loss in human M-HeLa cells assessed as decrease in red fluorescence intensity at 3 uM by JC10 staining based flow cytometry analysis (reference value: 99.70 %); type: functional; set-up: scale not given: the % may be the effect or the level left
M-HeLa [39] = assay: Induction of mitochondrial membrane potential loss in human M-HeLa cells assessed as decrease in red fluorescence intensity at 6 uM by JC10 staining based flow cytometry analysis (reference value: 99.70 %); type: functional; set-up: scale not given: the % may be the effect or the level left
M-HeLa [40] = assay: Induction of mitochondrial membrane potential loss in human M-HeLa cells assessed as decrease in red fluorescence intensity by JC10 staining based flow cytometry analysis; type: functional, cell-based

Q: Which results are given for `CCCCCCCCCCCC[P+](Cc1ccccc1O)(c1ccccc1)c1ccccc1.[Cl-]`?
A: MIC (Staphylococcus aureus [1]): 1 µM; MBC (Staphylococcus aureus [2]): 2 µM; MIC (Bacillus cereus [3]): 0.9 µM; MBC (Bacillus cereus [4]): 3.8 µM; MIC [5]: 7.8 µM; MFC [6]: 7.8 µM; MIC (Candida albicans [7]): 7.8 µM; MFC (Candida albicans [8]): 7.8 µM; MIC (Staphylococcus aureus [9]): 2 µM; MBC (Staphylococcus aureus [10]): 8 µM; MIC (Staphylococcus aureus [11]): 4 µM; MBC (Staphylococcus aureus [12]): 16 µM; Activity (Staphylococcus aureus [13]): 24 - 82.7%; hemolysis at 480 µM [14]: 65.4%; hemolysis at 240 µM [15]: 42.3%; hemolysis at 120 µM [16]: 21.2%; hemolysis at 60 µM [17]: 12.2%; hemolysis at 40 µM [18]: 2.9%; hemolysis at 20 µM [19]: 1.8%; hemolysis at 10 µM [20]: 1.3%; hemolysis at 5 µM [21]: 0.9%; hemolysis at 1 µM [22]: 0%; IC50 (M-HeLa [23]): 2.6 µM; IC50 (MCF7): 7.2 µM; IC50 (HepG2): 9.8 µM; IC50 (PANC-1): 25.3 µM; IC50 [24]: 42.8 µM; Ratio IC50 [25]: 16.4; Ratio IC50 [26]: 5.9; Ratio IC50 [27]: 4.5; Ratio IC50 [28]: 1.7; viability at 3 µM (M-HeLa [29]): 46.4%; Activity (M-HeLa [30]): 39.26%; Activity (M-HeLa [31]): 9.78%; Activity (M-HeLa [32]): 4.57%; viability at 6 µM (M-HeLa [33]): 33.4%; Activity (M-HeLa [34]): 53.31%; Activity (M-HeLa [35]): 10.89%; Activity (M-HeLa [36]): 2.42%; Activity (M-HeLa [37]): Dose-dependent effect; Activity (M-HeLa [38]): 76.61%; Activity (M-HeLa [39]): 39.17%; Activity (M-HeLa [40]): Dose-dependent effect
